{
  "source": "patent US20220054402A1",
  "about": "“COMPOSITIONS AND METHODS FOR EXTRACTING, STABILIZING, AND MAN[…] DOSAGE FORMS OF PSILOCIN, P[…], ENTHEOGENS, AND MEDICINAL MUSHROOMS AS NANO-D[…] DELIVERY STRUCTURES” (priority 2020, published 2022)",
  "origin": "cited, not measured here",
  "key": {"[1]": {"conditions": "oral ingestion"}, "[2]": {"biological_target": "serotonin 5-HT2A receptor (Homo sapiens, UniProt P28223)", "sequence (P28223 whole entry)": "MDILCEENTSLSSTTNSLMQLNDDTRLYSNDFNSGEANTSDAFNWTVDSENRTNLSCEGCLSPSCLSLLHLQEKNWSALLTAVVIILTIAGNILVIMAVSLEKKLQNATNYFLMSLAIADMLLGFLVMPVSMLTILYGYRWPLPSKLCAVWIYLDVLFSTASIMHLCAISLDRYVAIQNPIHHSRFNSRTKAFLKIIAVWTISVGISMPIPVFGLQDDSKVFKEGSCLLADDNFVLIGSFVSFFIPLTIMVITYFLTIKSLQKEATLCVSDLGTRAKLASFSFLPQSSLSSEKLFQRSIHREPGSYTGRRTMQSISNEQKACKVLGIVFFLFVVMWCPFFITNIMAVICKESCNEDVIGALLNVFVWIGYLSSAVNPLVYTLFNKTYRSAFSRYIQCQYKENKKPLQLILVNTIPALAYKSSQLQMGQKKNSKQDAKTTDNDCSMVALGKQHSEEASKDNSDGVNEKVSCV", "conditions": "psilocin versus psilocybin"}, "[3]": {"conditions": "β-glucan embedded in chitin cell walls"}},
  "data": [
    {"compound": "COc1cc(CCN)cc(OC)c1OC", "note": "[Mescaline, 5-trimethoxyphenethylamine]", "values": [
      {"measurement": "reported onset time of effects from ingesting", "setting": "[1]", "value": "60 to 180", "unit": "min"}
    ]},
    {"compound": "CN(C)CCc1c[nH]c2cccc(O)c12", "note": "[Psilocin, 4-hydroxy-NN-dimethyltryptamine]", "values": [
      {"measurement": "affinity for binding the serotonin 5-HT2A receptor relative to psilocybin", "setting": "[2]", "value": "more than 200 times"}
    ]},
    {"compound": "β-glucan", "values": [
      {"measurement": "bioavailability", "setting": "[3]", "value": "less than 5%"}
    ]}
  ]
}
